Measured values published in US20250179077A1, “QUINAZOLINE COMPOUNDS AND USES THEREOF AS INHIBITORS OF MUTANT KRAS PROTEINS” (AMGEN INC., priority 2022, published 2025).

Columns and labels:
[1] = target: His-tagged KRAS G12D protein (Homo sapiens, UniProt P01116, G12D); experiment: KRAS G12D TR-FRET Assay; assay type: binding
Method: KRAS G12D TR-FRET Assay Compounds of interest were prepared in a dose-response titration in DMSO, and 80 nL were added via Labcyte Echo to each well of a 384-well plate (Perkin Elmer 6008280). The His-tagged KRAS G12D protein (Amgen) was diluted to 20 nM in Assay Buffer (20 mM HEPES, pH 7.4, 10 mM MgCl2, 50 mM NaCl, 0.1% BSA, 0.01% Tween-20, 10 μM GDP) and 2 uL was added to the appropriate wells of the 384-well plate. The plate was incubated for 30 minutes at room temperature. Biotinylated KRPep-2d substrate (Amgen) was diluted to 20 nM in Assay Buffer and 2 μL was added to all wells and incubated for 1 hour at room temperature. Detection Reagent (0.4 nM LANCE Eu-W1024 Anti-6×-His (Perkin Elmer AD0401), 5 nM streptavidin-d2 (Cisbio 610SADLA)) was prepared in Assay Buffer, then 4 μL was added to the plate and incubated for 1 hour at room temperature. Plates were read using PerkinElmer EnVision (ex: 320 nm, em1: 665 nm, em2: 615 nm) and em1/em2 data was used to generate curve fits using a 4-parameter logistic model to calculate IC50 values.

[2] = test system: Phosphorylation of ERK1/2 in AsPC-1 cells; experiment: Phospho-ERK1/2 MSD Assay; assay type: cell-based; settings: Homo sapiens, ASPC1, 2 h, read-out: 2 h p-ERK (AsPC-1 cells), IC50, AsPC-1 cells, 2 h compound treatment
Method: AsPC-1 (ATCC® CRL-1682™) cells were cultured in RPMI 1640 Medium (ThermoFisher Scientific 11875093) containing 10% fetal bovine serum (ThermoFisher Scientific 16000044) and Ix penicillin-streptomycin-glutamine (ThermoFisher Scientific 10378016). Sixteen hours prior to compound treatment, AsPC-1 cells were seeded in 96-well cell culture plates at a density of 25,000 cells/well and incubated at 37° C., 5% CO2. A compound dose-response titration was diluted in growth media, added to appropriate wells of a cell culture plate, and then incubated at 37° C., 5% CO2 for 2 h. Following compound treatment, cells were washed with ice-cold Dulbecco's phosphate-buffered saline, no Ca^2+ or Mg^2+ (ThermoFisher Scientific 14190144), and then lysed in RIPA buffer (50 mM Tris-HCl pH 7.5, 1% Igepal, 0.5% sodium deoxycholate, 150 mM NaCl, and 0.5% sodium dodecyl sulfate) containing protease inhibitors (Roche 4693132001) and phosphatase inhibitors (Roche 4906837001). Phosphorylation of ERK1/2 in compound-treated lysates was assayed using Phospho-ERK1/2 Whole Cell Lysate kits (Meso Scale Discovery K151DWD) according to the manufacturer's protocol. Assay plates were read on a Meso Scale Discovery Sector Imager 6000, and data were analyzed using a 4-parameter logistic model to calculate IC50 values.

[3] = target: GDP-bound KRAS protein (aa 1-169), containing both G12D and C118A amino acid substitutions (Homo sapiens, UniProt P01116, C118A/G12D); experiment: KRAS G12D Coupled Nucleotide Exchange Assay; assay type: biochemical
Method: KRAS G12D Coupled Nucleotide Exchange Assay
Following compound pre-incubation, purified SOS protein (aa 564-1049) and GTP (Roche 10106399001) were added to the assay wells and incubated for an additional 30 min. […] The assay plates were then read on a PerkinElmer EnVision Multilabel Reader, using AlphaScreen® technology, and data were analyzed using a 4-parameter logistic model to calculate IC50 values.

Sequence of His-tagged KRAS G12D protein (P01116 1-188 isoform P01116-2 G12D): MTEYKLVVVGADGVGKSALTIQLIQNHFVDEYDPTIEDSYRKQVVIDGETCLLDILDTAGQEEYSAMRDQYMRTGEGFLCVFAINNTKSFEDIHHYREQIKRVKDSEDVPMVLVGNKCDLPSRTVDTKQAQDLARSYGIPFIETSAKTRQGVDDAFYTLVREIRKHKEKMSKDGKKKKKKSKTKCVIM
Sequence of GDP-bound KRAS protein (aa 1-169), containing both G12D and C118A amino acid substitutions (P01116 1-169 isoform P01116-2 G12D/C118A): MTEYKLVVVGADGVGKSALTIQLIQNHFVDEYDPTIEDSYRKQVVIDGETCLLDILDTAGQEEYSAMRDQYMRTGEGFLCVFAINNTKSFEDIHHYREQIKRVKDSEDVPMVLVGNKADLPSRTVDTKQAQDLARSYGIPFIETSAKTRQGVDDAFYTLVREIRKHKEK

IC50 [1]	IC50 [2]	IC50 [3]	Compound
2 nM	2 nM	2 nM	CCc1c(F)ccc2cc(O)cc(-c3c(F)cc4c(N5CCOCC(C)(O)C5)nc(OC[C@@]56CCCN5C[C@H](F)C6)nc4c3F)c12 (single isomer, unassigned) [Example 34]
7 nM	28 nM	5 nM	CCc1c(F)ccc2cc(O)cc(-c3c(F)cc4c(N5CCCC6(CCC(=O)O6)C5)nc(OC[C@@]56CCCN5C[C@H](F)C6)nc4c3F)c12 (stereo partly drawn) [Example 92, 7-(7-(8-Ethyl-7-fluoro-3-hydroxynaphthalen-1-yl)-6,8-difluoro-2-(((2R,7aS)-2-fluorotetrahydro-1H-pyrrolizin-7a(5H)-yl)methoxy)quinazolin-4-yl)-1-oxa-7-azaspiro[4.5]decan-2-one]
12 nM	525 nM	7 nM	CCc1cccc2cc(O)cc(-c3c(C#N)cc4c(N5CCCOCC5)nc(OC[C@@]56CCCN5C[C@H](F)C6)nc4c3F)c12 [Example 45, 7-(8-Ethyl-3-hydroxynaphthalen-1-yl)-8-fluoro-2-(((2R,7aS)-2-fluorotetrahydro-1H-pyrrolizin-7a(5H)-yl)methoxy)-4-(1,4-oxazepan-4-yl)quinazoline-6-carbonitrile]
4 nM	21 nM	4 nM	C#Cc1c(F)ccc2cc(O)cc(-c3ccc4c(N5CCC[C@@](C)(O)C5)nc(OC[C@@]56CCCN5C[C@H](F)C6)nc4c3F)c12 [Example 47, (R)-1-(7-(8-Ethynyl-7-fluoro-3-hydroxynaphthalen-1-yl)-8-fluoro-2-(((2R,7aS)-2-fluorotetrahydro-1H-pyrrolizin-7a(5H)-yl)methoxy)quinazolin-4-yl)-3-methylpiperidin-3-ol]
11 nM	391 nM	10 nM	CCc1c(F)ccc2cc(O)cc(-c3c(F)cc4c(N5CCOCC(F)(F)C5)nc(OC[C@@]56CCCN5C[C@H](F)C6)nc4c3F)c12 [Example 37, 4-(4-(6,6-Difluoro-1,4-oxazepan-4-yl)-6,8-difluoro-2-(((2R,7aS)-2-fluorotetrahydro-1H-pyrrolizin-7a(5H)-yl)methoxy)quinazolin-7-yl)-5-ethyl-6-fluoronaphthalen-2-ol]
5 nM	8 nM	4 nM	C[C@@]1(O)COCCN(c2nc(OC[C@@]34CCCN3C[C@H](F)C4)nc3c(F)c(-c4cc(O)cc5ccc(F)c(Cl)c45)c(F)cc23)C1 (single isomer, unassigned) [Example 81]
5 nM	7 nM	3 nM	CCc1c(F)ccc2cc(O)cc(-c3c(F)cc4c(N5CCC[C@]6(CCO6)C5)nc(OC[C@@]56CCCN5C[C@H](F)C6)nc4c3F)c12 (single isomer, unassigned) [Example 90]
1 nM	18 nM	1 nM	CCc1c(F)ccc2cc(O)cc(-c3c(O)cc4c(N5CCC[C@@](C)(O)C5)nc(OC[C@@]56CCCN5C[C@H](F)C6)nc4c3F)c12 (single isomer, unassigned) [Example 27]
50 nM	1860 nM	28 nM	N#Cc1cc2c(N3CCCOCC3)nc(OC[C@@]34CCCN3C[C@H](F)C4)nc2c(F)c1-c1cc(O)cc2ccccc12 [Example 44, 8-Fluoro-2-(((2R,7aS)-2-fluorotetrahydro-1H-pyrrolizin-7a(5H)-yl)methoxy)-7-(3-hydroxynaphthalen-1-yl)-4-(1,4-oxazepan-4-yl)quinazoline-6-carbonitrile]
25 nM	1160 nM	14 nM	Oc1cc(-c2ccc3c(N4CCCOCC4)nc(OC[C@@]45CCCN4C[C@H](F)C5)nc3c2F)c2ccccc2c1 [Example 42, 4-(8-Fluoro-2-(((2R,7aS)-2-fluorotetrahydro-1H-pyrrolizin-7a(5H)-yl)methoxy)-4-(1,4-oxazepan-4-yl)quinazolin-7-yl)naphthalen-2-ol]

Continued, molecule first:

Compound	IC50 [1]	IC50 [2]	IC50 [3]
Cc1cc2[nH]ncc2c(-c2ccc3c(N4CCC[C@](O)(CF)C4)nc(OC[C@@]45CCCN4C[C@H](F)C5)nc3c2F)c1[C@H]1C[C@H]1C (atropisomer, axis not shown; (aS)) [Example 118, (R)-1-((S)-8-Fluoro-2-(((2R,7aS)-2-fluorotetrahydro-1H-pyrrolizin-7a(5H)-yl)methoxy)-7-(6-methyl-5-((1S,2R)-2-methylcyclopropyl)-1H-indazol-4-yl)quinazolin-4-yl)-3-(fluoromethyl)piperidin-3-ol]	5 nM	126 nM	4 nM
CCc1c(F)ccc2cc(O)cc(-c3ccc4c(N5CCCC6(CC(=O)N6)C5)nc(OC[C@@]56CCCN5C[C@H](F)C6)nc4c3F)c12 (stereo partly drawn) [Example 51, 6-(7-(8-Ethyl-7-fluoro-3-hydroxynaphthalen-1-yl)-8-fluoro-2-(((2R,7aS)-2-fluorotetrahydro-1H-pyrrolizin-7a(5H)-yl)methoxy)quinazolin-4-yl)-1,6-diazaspiro[3.5]nonan-2-one]	3 nM	47 nM	4 nM
C#Cc1c(F)ccc2cc(N)cc(-c3c(F)cc4c(N5CCCC6(CNC(=O)O6)C5)nc(OC[C@@]56CCCN5C[C@H](F)C6)nc4c3F)c12 (stereo partly drawn) [Example 69, 7-(7-(3-Amino-8-ethynyl-7-fluoronaphthalen-1-yl)-6,8-difluoro-2-(((2R,7aS)-2-fluorotetrahydro-1H-pyrrolizin-7a(5H)-yl)methoxy)quinazolin-4-yl)-1-oxa-3,7-diazaspiro[4.5]decan-2-one]	11 nM	175 nM	5 nM
C#Cc1c(F)ccc2cc(O)cc(-c3ccc4c(N5CC6CC(O)C(C6)C5)nc(OC[C@@]56CCCN5C[C@H](F)C6)nc4c3F)c12 (single isomer, unassigned) [Example 17]	11 nM	744 nM	9 nM
C/C=C\c1c(Cl)cc2[nH]ncc2c1-c1c(F)cc2c(N3CCOC[C@@](C)(O)C3)nc(OC[C@@]34CCCN3C[C@H](F)C4)nc2c1F [Example 103, (6S)-4-(7-(6-Chloro-5-((Z)-prop-1-en-1-yl)-1H-indazol-4-yl)-6,8-difluoro-2-(((2R,7aS)-2-fluorotetrahydro-1H-pyrrolizin-7a(5H)-yl)methoxy)quinazolin-4-yl)-6-methyl-1,4-oxazepan-6-ol]	7 nM	27 nM	5 nM
CCc1c(F)ccc2cc(O)cc(-c3ccc4c(N5CCCC(O)(C(F)F)C5)nc(OC[C@@]56CCCN5C[C@H](F)C6)nc4c3F)c12 (single isomer, unassigned) [Example 23]	2 nM	157 nM	2 nM
C/C=C\c1c(Cl)cc2[nH]ncc2c1-c1ccc2c(N3CCOC[C@@](C)(O)C3)nc(OC[C@@]34CCCN3C[C@H](F)C4)nc2c1F [Example 105, (6S)-4-(7-(6-Chloro-5-((Z)-prop-1-en-1-yl)-1H-indazol-4-yl)-8-fluoro-2-(((2R,7aS)-2-fluorotetrahydro-1H-pyrrolizin-7a(5H)-yl)methoxy)quinazolin-4-yl)-6-methyl-1,4-oxazepan-6-ol]	3 nM	32 nM	3 nM
CCc1c(F)ccc2cc(O)cc(-c3ccc4c(N5CCCC6(CNC6=O)C5)nc(OC[C@@]56CCCN5C[C@H](F)C6)nc4c3F)c12 (stereo partly drawn) [Example 52, 6-(7-(8-Ethyl-7-fluoro-3-hydroxynaphthalen-1-y1)-8-fluoro-2-(((2R,7a.S)-2-fluorotetrahydro-1H-pyrrolizin-7a(5H)-yl)methoxy)quinazolin-4-yl)-2,6-diazaspiro[3.5]nonan-1-one]	10 nM	179 nM	7 nM
C#Cc1c(F)ccc2cccc(-c3c(F)cc4c(N5CCC[C@@](C)(O)C5)nc(OC[C@@]56CCCN5C[C@H](F)C6)nc4c3F)c12 (single isomer, unassigned) [Example 67]	4 nM	338 nM	3 nM
